These results are taken from PMC11091978 (ACS Pharmacology & Translational Science, 2024).

pIC50: −log10 of the molar value.

For the assay, the target named is NLRP3 (Homo sapiens, UniProt Q96P20). It is filed as cell-based.
Chain of NLRP3 (Q96P20 whole entry): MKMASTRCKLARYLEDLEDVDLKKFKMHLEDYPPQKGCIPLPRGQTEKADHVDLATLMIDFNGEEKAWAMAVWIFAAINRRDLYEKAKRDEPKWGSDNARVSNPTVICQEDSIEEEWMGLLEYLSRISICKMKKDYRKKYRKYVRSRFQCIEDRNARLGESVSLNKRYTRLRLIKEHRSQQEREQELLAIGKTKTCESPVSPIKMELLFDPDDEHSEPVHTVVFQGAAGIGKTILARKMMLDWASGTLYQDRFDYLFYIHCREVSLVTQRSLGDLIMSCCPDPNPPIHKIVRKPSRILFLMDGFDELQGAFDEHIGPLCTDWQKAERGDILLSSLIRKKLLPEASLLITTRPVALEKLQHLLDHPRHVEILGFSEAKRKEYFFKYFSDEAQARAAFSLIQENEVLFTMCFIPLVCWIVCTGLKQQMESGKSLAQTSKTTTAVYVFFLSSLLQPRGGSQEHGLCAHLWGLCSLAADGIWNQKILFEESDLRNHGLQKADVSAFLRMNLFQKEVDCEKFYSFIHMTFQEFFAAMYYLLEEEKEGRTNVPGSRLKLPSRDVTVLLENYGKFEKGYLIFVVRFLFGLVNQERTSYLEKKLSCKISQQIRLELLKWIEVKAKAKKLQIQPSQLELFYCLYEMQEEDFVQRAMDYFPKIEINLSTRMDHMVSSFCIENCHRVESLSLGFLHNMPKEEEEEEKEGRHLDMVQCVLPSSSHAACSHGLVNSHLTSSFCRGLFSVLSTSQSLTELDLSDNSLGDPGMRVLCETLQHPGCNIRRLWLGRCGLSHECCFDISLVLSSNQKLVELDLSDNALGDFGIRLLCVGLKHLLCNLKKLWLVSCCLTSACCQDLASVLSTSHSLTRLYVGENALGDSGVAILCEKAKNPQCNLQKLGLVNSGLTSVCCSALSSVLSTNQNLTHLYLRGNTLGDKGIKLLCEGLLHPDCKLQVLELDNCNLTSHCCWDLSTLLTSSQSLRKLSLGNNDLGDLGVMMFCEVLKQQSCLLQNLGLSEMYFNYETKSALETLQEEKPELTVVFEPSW

For `Cn1cc(N(C[C@@H]2CCCO2)S(=O)(=O)NC(=O)Nc2c3c(cc4c2CCC4)CCC3)cn1` [NT-0249, [(1,2,3,5,6,7-hexahydro-s-indacen-4-yl)carbamoyl][(1-methyl-1H-pyrazol-4-yl)({[(2S)-oxolan-2-yl]methyl})sulfamoyl]azanide], the negative logarithm of the IC50 (pIC50) (commonly −log10 of the IC50, conventionally taken in molar units) is 7.96.
